Source: patent publication US4048334A, “Active derivatives of methylamino in therapeutic compositions and methods of use” (priority 1974, dated 1977)

Experiments:
[1] = tested on: reserpine-induced catatonia; test: Inhibition of reserpine-induced catatonia; type: in vivo, rat (male, OFA strain)
Experimental: 1. Inhibition of reserpine-induced catatonia
After sufficient doses of reserpine have been administered to the rat, a series of symptoms occur, more particularly ptosis, catatonia and a drop in central temperature. These symptoms are caused by the depletion of the intragranular reserve pool of boigenetic amines at the synaptic terminals.
An oral dose of the compound to be studied in aqueous solution was administered to batches of 10 male rats of the OFA strain weighing about 150 to 200 g. Thirty minutes later a dose of 5 mg/kg of reserpine was given by intraperitoneal route. Three hours after the injection of reserpine, the animals were suspended by the four paws to a horizontally stretched wire fixed at 15 cm from the ground. The catatonic animals were those which maintained the position so given for at least 30 seconds. […] The maximum score was therefore 10 per batch. An identical trial was undertaken with control animals which received reserpine but none of the compounds being studied.

[2] = tested on: neuroleptic-induced catatonia; test: Inhibition of neuroleptic-induced catatonia (prochlorperazine); type: in vivo, rat (male, OFA strain)
Experimental: 2. Inhibition of neuroleptic-induced catatonia
The blocking of dopaminergic receptors by neuroleptics in the extra-pyramidal system induces catatonia in the rat. Catatonia is differentiated from sedative properties by means of the test used hereabove for reserpine-induced catatonia. The same system of scoring was also employed in the present case.
An oral dose of the compound to be studied in aqueous solution was administered to batches of 10 male rats of the OFA strain weighing about 150 to 200 g. […] Three hours after the injection of this latter compound, catatonia was measured. An identical trial was also carried out with control animals which received prochlorperazine but none of the compounds under study.
The scoring system, used was that given hereabove in Table I.

[3] = tested on: catalepsy; test: Inhibition of catalepsy (crossing of homolateral paws, prochlorperazine); type: in vivo, rat; conditions: Rattus norvegicus, po, read-out: dose necessary to induce complete inhibition of the catalepsy; prochlorperazine catalepsy
Experimental: Additional trials were carried out on rats with Compound 1 and amantadine. These trials involved catalepsy as evidenced by the crossing of the animals' homolateral paws.

[4] = tested on: reserpine-induced catatonia; test: Suppression of reserpine-induced catatonia (curative treatment); type: in vivo, rat (male, OFA strain); parameters: key to catatonia score (maximum 5 per batch): number of animals (of 5) still in catatonia; max 5 per batch; conditions: 80 mg/kg oral
Experimental: a. Suppression of reserpine-induced catatonia
Batches of 5 male rats of the OFA strain, weighing 150 to 200 g were given 5 mg/kg of reserpine by intraperitoneal route. One hour and 45 minutes later, namely when the animals were in a state of catatonia, an aqueous dose of the compound to be studied was administered by oral route to all the animals with the exception of the control group.
The progress of the catatonia was then noted following the scale used in the tests described hereabove.
The maximum score was thus 5 per batch which means that all the animals of the batch were considered to be still in a state of catatonia.

[5] = tested on: neuroleptic-induced catatonia; test: Suppression of neuroleptic-induced catatonia (curative treatment, prochlorperazine); type: in vivo, rat (male, OFA strain); conditions: 80 mg/kg oral
Experimental: b. Suppression of neuroleptic-induced catatonia
Batches of 5 male rats of the OFA strain were given 12.5 mg/kg of prochlorperazine by intraperitoneal route. Fifty-five minutes later, an oral dose in aqueous solution of the compound to be studied was administered to all the animals with the exception of the control group. The progress of the catatonia was noted following the same scale as that used in the tests described above.

[6] = tested on: tremorine-induced cholinergic effects; test: Anti-tremorine test (cholinolytic properties in vivo); parameters: species or system mice (male, OF1 strain); key to peripheral cholinergic effects score (salivation, sweating, weeping): 0: no action; 1: slight action; 2: average action; 3: strong action; 4: very strong action
Experimental: For this purpose, the following test was performed with a view to determining the anti-tremorine properties of Compound 1.
When injected into mice, tremorine produces peripheral effects i.e. weeping, sweating, salivation and diarrhoea and central effects i.e. tremor and akinesia. Such effects are due to an increase in the amount of intracerebral acetylcholine and serotonine.
Male mice of the OF1 strain weighing about 22 g were divided into batches of 10. […] Thirty minutes later a dose of 10 mg/kg of tremorine was injected by intraperitoneal route and, at different times after this injection, note was taken of the cholinergic effects on each animal in accordance with the following scale: […]

[7] = tested on: electrocardiogram; test: Effect on the electrocardiogram; type: in vivo; conditions: dog, 5 mg/kg injected
[8] = tested on: peripheral noradrenergic phenomena (arterial pressure, nictitating membrane); conditions: cat, in vivo
[9] = tested on: peripheral noradrenergic phenomena (arterial pressure, nictitating membrane); test: Influence on peripheral noradrenergic phenomena (norepinephrine, arterial pressure and nictitating membrane)
[10] = tested on: isolated duodenum of the rat; test: MAGNUS test: inhibition of acetylcholine spasm (cholinolytic / spasmolytic activity in vitro)
Source text: This test consists in determining the dose of acetylcholine which, when added to the bath, provokes spasm of the isolated duodenum of the rat. The next step consists in determining the dose of the compound under study which, when added to the bath 30 seconds before the acetylcholine, reduces the spasm.

[11] = in vivo; conditions: mouse, mice, oral, aqueous solution, 10 days observation
[12] = Toxico-pharmacological index (LD50 / effective dose in catatonia); conditions: in vivo
[13] = tested on: reserpine-induced and neuroleptic-induced catatonia; test: as above; conditions: ED20-30: 20 to 30% inhibition of the catatonia
[14] = SPERBER et al., J. Amer. Chem. Soc., 71, 3352 (1949); cited from earlier work
[15] = 20 mg/kg oral, 30 min before reserpine
[16] = 20 mg/kg oral, 30 min before prochlorperazine

## NC12CC3CC(CC(C3)C1)C2 [Amantadine, 1-amino-adamantane]
[1]; 100 mg/kg oral, 30 min before reserpine
  Inhibition of reserpine-induced catatonia: 4 (100% inhibition of catatonia in comparison with the controls (namely a score of 0 per studied batch))
[2]; 100 mg/kg oral, 30 min before prochlorperazine
  Inhibition of the neuroleptic-induced catatonia: 4 (100% inhibition of catatonia in comparison with the controls (namely a score of 0 per studied batch))
[3]
  ED100: 80 mg/kg
[4]; 2h15 after reserpine
  catatonia score (maximum 5 per batch): 4
[4]; 2h30 after reserpine
  catatonia score (maximum 5 per batch): 3
[4]; 3h30 after reserpine
  catatonia score (maximum 5 per batch): 1
[4]; 2h after reserpine
  catatonia score (maximum 5 per batch): 5
[4]; 3h after reserpine
  catatonia score (maximum 5 per batch): 2
[4]; 4h after reserpine
  catatonia score (maximum 5 per batch): 0
[4]; 5h after reserpine
  catatonia score (maximum 5 per batch): 0
[5]; 1h30 after prochlorperazine
  catatonia score (5 rats per batch): 5
[5]; 2h30 after prochlorperazine
  catatonia score (5 rats per batch): 2
[5]; 3h30 after prochlorperazine
  catatonia score (5 rats per batch): 0
[5]; 3h after prochlorperazine
  catatonia score (5 rats per batch): 1
[5]; 4h after prochlorperazine
  catatonia score (5 rats per batch): 0
[5]; 5h after prochlorperazine
  catatonia score (5 rats per batch): 0
[6]; 40 mg/kg oral, 20, 30 and 40 minutes after tremorine 10 mg/kg i.p.
  peripheral cholinergic effects score (salivation, sweating, weeping): 4
[6]; 40 mg/kg oral, identical to the peripheral score (4)
  central cholinergic effects (normal and provoked tremor): Identical results
[6]; mouse, in vivo
  antitremorine properties: devoid of antitremorine properties
[7]
  effect on the electrocardiogram: cardiac arrhythmia due to ventricular extrasystoles
[8]
  dose from which exogenous norepinephrine is potentiated: ≥ 1 mg/kg
  dose from which ganglioplegic properties are shown: ≥ 5 mg/kg
[9]; cumulative dose 0.1 mg/kg i.v.
  Contractile reaction of the nictitating membrane with electric stimulation: 20 mm
  Contractile reaction of the nictitating membrane without electric stimulation: 0 mm
  Increase in arterial pressure after injection of norepinephrine: 29 mm Hg
[9]; cumulative dose 1 mg/kg i.v.
  Contractile reaction of the nictitating membrane with electric stimulation: 20 mm
  Contractile reaction of the nictitating membrane without electric stimulation: 3 mm
  Increase in arterial pressure after injection of norepinephrine: 35 mm Hg
[9]; cumulative dose 3 mg/kg i.v.
  Contractile reaction of the nictitating membrane with electric stimulation: 16 mm
  Contractile reaction of the nictitating membrane without electric stimulation: 4.4 mm
  Increase in arterial pressure after injection of norepinephrine: 35 mm Hg
[9]; cumulative dose 5 mg/kg i.v.
  Contractile reaction of the nictitating membrane with electric stimulation: 10 mm
  Contractile reaction of the nictitating membrane without electric stimulation: 5.9 mm
  Increase in arterial pressure after injection of norepinephrine: 59 mm Hg
[9]; cumulative dose 10 mg/kg i.v.
  Contractile reaction of the nictitating membrane with electric stimulation: 4 mm
  Contractile reaction of the nictitating membrane without electric stimulation: 7.5 mm
  Increase in arterial pressure after injection of norepinephrine: 57 mm Hg
[9]; in vivo
  ganglioplegic action: exerts a ganglioplegic action
  own effect on contractile reaction of the nictitating membrane: stimulates the contractile reaction of the nictitating membrane
  potentiation of (peripheral) effects of norepinephrine: potentiates the peripheral adrenergic effects
  potentiation of the effects of the electric stimulation: does not potentiate the effects of the electric stimulation

## CN1[C@@H]2CC[C@H]1C[C@@H](OC(=O)C(CO)c1ccccc1)C2 (stereo partly shown) [Atropine, reference compound]
[10]; 0.1 × 10^-6 g/ml of bath
  % of inhibition of the spasm: 45%
[10]; 0.2 × 10^-6 g/ml of bath
  % of inhibition of the spasm: 100%

## CCCC(N)(CC)CCC [Compound 2, 1-Ethyl-1-n-propyl-n-butylamine]
[1]; 5 mg/kg oral, 30 min before reserpine 5 mg/kg i.p.
  Inhibition of reserpine-induced catatonia: 1 (20 to 30% inhibition of catatonia in comparison with the controls (namely a score of 7 to 8 per studied batch))
[2]; 5 mg/kg oral, 30 min before prochlorperazine 12.5 mg/kg i.p.
  Inhibition of the neuroleptic-induced catatonia: 1 (20 to 30% inhibition of catatonia in comparison with the controls (namely a score of 7 to 8 per studied batch))
[11]
  LD50 at 240 h: 150 mg/kg
[12]
  selectivity ratio: 25

## CCCC(C)(N)CC(C)CC (stereo not shown) [Compound 6, 1,3-Dimethyl-1-n-propyl-n-pentylamine]
[1]; [15]
  Inhibition of reserpine-induced catatonia: 1 (20 to 30% inhibition of catatonia in comparison with the controls (namely a score of 7 to 8 per studied batch))
[2]; [16]
  Inhibition of the neuroleptic-induced catatonia: 1 (20 to 30% inhibition of catatonia in comparison with the controls (namely a score of 7 to 8 per studied batch))
[11]
  LD50 at 240 h: > 500 mg/kg
[13]
  Index LD50/ED20-30: > 25

## CCCCCC(C)(N)CCC (stereo not shown) [Compound 9, 1-Methyl-1-n-propyl-n-hexylamine]
[1]; [15]
  Inhibition of reserpine-induced catatonia: 1 (20 to 30% inhibition of catatonia in comparison with the controls (namely a score of 7 to 8 per studied batch))
[2]; [16]
  Inhibition of the neuroleptic-induced catatonia: 1 (20 to 30% inhibition of catatonia in comparison with the controls (namely a score of 7 to 8 per studied batch))
[11]
  LD50 at 240 h: 1750 mg/kg
[13]
  Index LD50/ED20-30: 87

## CCCCC(N)(CCCC)CCCC [Compound 12, 1,1-Di-n-butyl-n-pentylamine]
[1]; [15]
  Inhibition of reserpine-induced catatonia: 1 (20 to 30% inhibition of catatonia in comparison with the controls (namely a score of 7 to 8 per studied batch))
[2]; [16]
  Inhibition of the neuroleptic-induced catatonia: 1 (20 to 30% inhibition of catatonia in comparison with the controls (namely a score of 7 to 8 per studied batch))
[11]
  LD50 at 240 h: 500 mg/kg
[14]
  spasmolytic activity and toxicity versus corresponding trialkylethylamines: less spasmolytic and more toxic than the corresponding trialkylethylamines
[13]
  Index LD50/ED20-30: 25

## CCC=CC(N)(CCC)CCC [Compound 25, 1,1-Di-n-propyl-2-penten-1-ylamine]
[1]; 6 mg/kg oral, 30 min before reserpine
  Inhibition of reserpine-induced catatonia: 3 (70 to 80% inhibition of catatonia in comparison with the controls (namely a score of 2 or 3 per studied batch))
[2]; 6 mg/kg oral, 30 min before prochlorperazine
  Inhibition of the neuroleptic-induced catatonia: 3 (70 to 80% inhibition of catatonia in comparison with the controls (namely a score of 2 or 3 per studied batch))

## C#CCC(N)(CCC)CCC [Compound 26, 1,1-Di-n-propyl-3-butyn-1-ylamine]
[1]; 30 mg/kg oral, 30 min before reserpine
  Inhibition of reserpine-induced catatonia: 1 (20 to 30% inhibition of catatonia in comparison with the controls (namely a score of 7 to 8 per studied batch))
[2]; 30 mg/kg oral, 30 min before prochlorperazine
  Inhibition of the neuroleptic-induced catatonia: 4 (100% inhibition of catatonia in comparison with the controls (namely a score of 0 per studied batch))
